# From patent US20040024024A1, “Aromatic sulfone hydroxamates and their use as protease inhibitors” (priority 2001, published 2004)
# pIC50, pKi: −log10 of the molar value. Counter-ions that a name gives are not always drawn.
# What was measured:
# Human recombinant MMP-9 = molecular target: T1, Human recombinant MMP-9 (Homo sapiens, UniProt P14780); assay: In vitro MMP inhibition, IC50 determination (fluorogenic substrate I); assay type: biochemical
# T1 construct: made in house; host or cells: MMP-9-transfected HT1080 cells (spent media)
# T1 sequence (P14780 107-707 limits assumed): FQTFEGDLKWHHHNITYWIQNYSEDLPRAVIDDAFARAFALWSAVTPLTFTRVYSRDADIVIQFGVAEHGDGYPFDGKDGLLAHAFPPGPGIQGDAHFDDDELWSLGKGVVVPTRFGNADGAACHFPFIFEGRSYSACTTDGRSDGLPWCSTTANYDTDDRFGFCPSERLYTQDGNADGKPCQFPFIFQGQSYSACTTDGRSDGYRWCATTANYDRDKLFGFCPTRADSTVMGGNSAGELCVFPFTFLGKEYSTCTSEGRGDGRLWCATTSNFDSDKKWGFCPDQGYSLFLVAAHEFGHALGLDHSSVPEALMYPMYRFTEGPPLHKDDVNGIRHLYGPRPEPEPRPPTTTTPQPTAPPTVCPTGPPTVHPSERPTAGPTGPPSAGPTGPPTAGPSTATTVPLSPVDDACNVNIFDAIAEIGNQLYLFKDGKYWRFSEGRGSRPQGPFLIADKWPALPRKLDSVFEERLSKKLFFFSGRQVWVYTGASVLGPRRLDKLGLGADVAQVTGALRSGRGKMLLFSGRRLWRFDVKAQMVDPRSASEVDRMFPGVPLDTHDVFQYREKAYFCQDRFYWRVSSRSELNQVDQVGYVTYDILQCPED
# How it was run: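 MMP-9 proenzyme purified from transfected HT1080 cell media, activated with APMA or trypsin. Compound dilutions in pH 7.5 Tris/NaCl/CaCl2 buffer with 0.05% polyoxyethylene 23 lauryl ether, incubated at room temperature with 4 μM MCA/Dpa substrate I. IC50 from fluorescence loss (ex 328, em 415 nm) versus inhibitor concentration.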
# Human recombinant MMP-2 = molecular target: T2, Human recombinant MMP-2 (Homo sapiens, UniProt P08253); assay: In vitro MMP inhibition, Ki determination (fluorogenic substrate II); assay type: biochemical
# T2 construct: made in house; host or cells: MMP-2-transfected p2AHT2 cells
# T2 sequence (P08253 110-660): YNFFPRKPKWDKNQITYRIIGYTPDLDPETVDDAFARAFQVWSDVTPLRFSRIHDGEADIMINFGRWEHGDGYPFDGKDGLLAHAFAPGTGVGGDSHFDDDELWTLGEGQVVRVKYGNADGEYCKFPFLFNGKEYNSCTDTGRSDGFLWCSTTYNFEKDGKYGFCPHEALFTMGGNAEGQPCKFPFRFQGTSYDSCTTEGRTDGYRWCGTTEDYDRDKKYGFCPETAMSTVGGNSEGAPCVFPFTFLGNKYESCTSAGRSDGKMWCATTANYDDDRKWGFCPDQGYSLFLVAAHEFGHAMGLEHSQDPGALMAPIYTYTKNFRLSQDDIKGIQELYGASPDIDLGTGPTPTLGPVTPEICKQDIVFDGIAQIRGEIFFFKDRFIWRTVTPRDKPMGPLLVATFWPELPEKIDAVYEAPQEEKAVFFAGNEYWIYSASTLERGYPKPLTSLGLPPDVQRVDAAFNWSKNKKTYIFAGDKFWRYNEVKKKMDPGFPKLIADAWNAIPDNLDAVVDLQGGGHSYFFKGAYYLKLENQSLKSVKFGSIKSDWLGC
# Method: Several hydroxamates and salts thereof were analyzed in in vitro assays to determine their ability to inhibit the MMP cleavage of peptide substrates. Inhibition (Ki) and IC50 constants were calculated from the assayed hydroxamate-MMP interactions.
# Human recombinant MMP-1, MMP-2, MMP-9, MMP-13, and MMP-14 were used in this assay. All enzymes were prepared in Assignee's laboratories following usual laboratory procedures. Protocols for the preparation and use of these enzymes are available in the scientific literature. See, e.g., Enzyme Nomenclature (Academic Press, San Diego, Calif., 1992) (and the citations therein). See also, Frije et al., J. Biol. Chem., 26(24), 16766-73 (1994).
# The MMP-2 proenzyme was purified by gelatin Sepharose chromatography from MMP-2-transfected p2AHT2 cells provided by Dr. Gregory Goldberg of Washington University (St. Louis, Mo.).
# All MMPs were activated using 4-aminophenylmercuric acetate (“APMA”, Sigma Chemical, St. Louis, Mo.) or trypsin. MMP-9 also was activated using human recombinant MMP-3 (purified in Assignee's laboratory following standard cloning and purification techniques).
# Two fluorogenic, methoxycoumarin-containing polypeptide substrates were used in the MMP inhibition assays:
# MCA-ArgProLeuGlyLeuDpaAlaArgGluArgNH2 (II)
# Here, “Dpa” is 3-(2,4-dinitrophenyl)-L-2,3-diaminopropionyl group, and “MCA” is 7-methoxycoumarin-4-yl acetyl. Substrate (I) was purchased from Baychem (Redwood City, Calif.), and substrate II was prepared Assignee's laboratory. Substrate I was used in the IC50 determination assays, while substrate II was used in the Ki determination assays. In the absence of MMP inhibitory activity, either substrate is cleaved at the Gly-Leu peptide bond. This cleavage separates the highly fluorogenic peptide from the 2,4-dinitrophenyl quencher, thus resulting in increase of fluorescent intensity.
# The stock solutions of the assayed hydroxamates (or salts thereof) were prepared in 1% dimethyl sulfoxide (DMSO). These stock solutions were diluted in Buffer A (100 mM Tris-HCl, 100 mM NaCl, 10 mM CaCl2, 0.05% polyoxyethylene 23 lauryl ether, pH 7.5) to obtain solutions with different hydroxamate concentrations, i.e., assay solutions with different concentrations of the assayed MMP inhibitory compound. The experiment controls contained the same amount of Buffer A/DMSO as the assayed sample, but contained no hydroxamate (or salt thereof).
# The assays from which the Ki determinations were made were performed as follows. The assayed hydroxamate samples were incubated in separate wells of untreated white polystyrene plates (Nunc Nalgene International, Rochester, N.Y.), and analyzed on a Tecan SpectraFlour Plus plate reader. The excitation wavelength was 330 nm, and the emission wavelength—420 nm. All samples (assayed hydroxamates and controls) were incubated in separate plate wells at room temperature for 1 hr in the presence of 4 μM of MMP substrate (II). In the absence of MMP inhibitory activity, substrate II was cleaved at the Gly-Leu bond resulting in an increase of relative fluorescence. Inhibition was observed as a reduced rate of this increase in relative fluorescence. The various hydroxamates were analyzed using a single low enzyme concentration with a single substrate concentration fixed at or below the Km. This protocol is a modification of method by Knight et al., FEBS Lett., 296(3), 263-266 (1992). Apparent inhibitory constants were determined by non-linear regression of reaction velocity as a function of inhibitor and enzyme concentration using Morrison's equation, as described by Kuzmic, Anal. Biochem. 286, 45-50 (2000). […] Since the substrate concentration was chosen to be at or below the Km, the apparent Ki's from this analysis were reported as Ki's without correction for the influence of substrate.
# [1] = substrate (I) 4 μM, room temperature, values not in parenthesis
# [2] = substrate (II) 4 μM, 1 hr room temperature, apparent Ki, values in parenthesis
SMILES,pIC50 (Human recombinant MMP-9; value outside parenthesis),pKi (Human recombinant MMP-2; value in parenthesis),also measured
O=C(NO)C1(S(=O)(=O)c2ccc(OCCCc3cccc(-c4ccoc4)c3)cc2)CCOCC1 [Example 637],–,–,pIC50 (Human recombinant MMP-9; value outside parentheses): 6.08; pKi (Human recombinant MMP-2; value in parentheses): 6.30
COCCN1CCC(C(=O)NO)(S(=O)(=O)c2ccc(OCCCc3nnc(-c4ccccc4C(F)(F)F)o3)cc2)CC1 [Example 178],5.93,7.41,–
O=C(NO)C1(S(=O)(=O)c2ccc(OCCCn3nnc(-c4ccc(OC(F)(F)F)cc4)n3)cc2)CCN(C2CC2)CC1 [Example 49],–,–,pIC50 (Human recombinant MMP-9; [1]): 5.39; pKi (Human recombinant MMP-2; [2]): 6.36
O=C(NO)C1(S(=O)(=O)c2ccc(OCCc3cccc(-c4ccccn4)c3)cc2)CCOCC1 [Example 40],–,–,pIC50 (Human recombinant MMP-9; [1]): 6.38; pKi (Human recombinant MMP-2; [2]): 6.67
O=C(NO)C1(S(=O)(=O)c2ccc(OCCCc3cccc(-c4ccc(F)cc4F)c3)cc2)CCOCC1 [Example 630],–,–,pIC50 (Human recombinant MMP-9; value outside parentheses): 5.22; pKi (Human recombinant MMP-2; value in parentheses): 5.68
O=C(NO)C1(S(=O)(=O)c2ccc(OCCCc3cncc(-c4ccccc4)c3)cc2)CCOCC1 [Example 524],–,–,pIC50 (Human recombinant MMP-9; value outside parentheses): 5.73; pKi (Human recombinant MMP-2; value in parentheses): 7.29
COCCN1CCC(C(=O)NO)(S(=O)(=O)c2ccc(OCCCc3nc(-c4ccc(CC(C)C)cc4)no3)cc2)CC1 [Example 175],5.14,6.06,–
O=C(NO)C1(S(=O)(=O)c2ccc(OCCCc3cccc(-c4ccccc4F)c3)cc2)CCOCC1 [Example 163],5.54,6.00,–
COCCN1CCC(C(=O)NO)(S(=O)(=O)c2ccc(OCCCc3nc(-c4ccc(OC(F)(F)F)cc4)no3)cc2)CC1 [Example 42],–,–,pIC50 (Human recombinant MMP-9; [1]): 6.42; pKi (Human recombinant MMP-2; [2]): 6.73
N#Cc1ccc(-c2cccc(CCCOc3ccc(S(=O)(=O)C4(C(=O)NO)CCOCC4)cc3)c2)cc1 [Example 624],–,–,pIC50 (Human recombinant MMP-9; value outside parentheses): 5.99; pKi (Human recombinant MMP-2; value in parentheses): 6.21
O=C(NO)C1(S(=O)(=O)c2ccc(OCCCc3cccc(Cc4ccccc4)c3)cc2)CCOCC1 [Example 98],5.62,6.20,–
COCCN1CCC(C(=O)NO)(S(=O)(=O)c2ccc(OCCCc3cccc(-c4ccc(F)cc4)c3)cc2)CC1 [Example 140],5.77,6.15,–
O=C(NO)C1(S(=O)(=O)c2ccc(OCCCc3cccc(-c4ccc([N+](=O)[O-])cc4)c3)cc2)CCOCC1 [Example 626],–,–,pIC50 (Human recombinant MMP-9; value outside parentheses): 6.05; pKi (Human recombinant MMP-2; value in parentheses): 6.19
COCCN1CCC(C(=O)NO)(S(=O)(=O)c2ccc(OCCCn3nnc(-c4ccc(OC(F)(F)F)cc4)n3)cc2)CC1 [Example 48],–,–,pIC50 (Human recombinant MMP-9; [1]): 5.35; pKi (Human recombinant MMP-2; [2]): 6.64
O=C(NO)C1(S(=O)(=O)c2ccc(OCCCc3cccc(-c4ccsc4)c3)cc2)CCOCC1 [Example 632],–,–,pIC50 (Human recombinant MMP-9; value outside parentheses): 6.39; pKi (Human recombinant MMP-2; value in parentheses): 6.55
O=C(NO)C1(S(=O)(=O)c2ccc(OCCc3cccc(-c4cccnc4)c3)cc2)CCOCC1 [Example 125],6.02,7.29,–
O=C(NO)C1(S(=O)(=O)c2ccc(OCCCn3nnc(-c4ccc(OC(F)(F)F)cc4)n3)cc2)CCN(CC2CC2)CC1 [Example 53],–,–,pIC50 (Human recombinant MMP-9; [1]): 7.12; pKi (Human recombinant MMP-2; [2]): 6.16
"CCN1CCC(C(=O)NO)(S(=O)(=O)c2ccc(OCCCc3nc(-c4ccc(OC(F)(F)F)cc4)no3)cc2)CC1 [Example 41, 1-ethyl-N-hydroxy 4-{[4-(3-{3-[4-(trifluoromethoxy)phenyl]-1,2,4-oxadiazol-5-yl}propoxy)phenyl]sulfonyl}piperidine-4-carboxamide Hydrochloride]",–,–,pIC50 (Human recombinant MMP-9; [1]): 5.80; pKi (Human recombinant MMP-2; [2]): 6.38

SMILES,pIC50 (Human recombinant MMP-9; value outside parenthesis),pKi (Human recombinant MMP-2; value in parenthesis),also measured
O=C(CCCc1ccc(S(=O)(=O)C2(C(=O)NO)CCOCC2)cc1)c1cccc(-c2ccccc2)c1 [Example 219],7.11,6.98,–
O=C(NO)C1(S(=O)(=O)c2ccc(OCCOc3cccc(-c4ccccc4)c3)cc2)CCOCC1 [Example 157],5.61,6.38,–
O=C(NO)C1(S(=O)(=O)c2ccc(OCCCc3cc(-c4ccc(OC(F)(F)F)cc4)cs3)cc2)CCOCC1 [Example 608],–,–,pIC50 (Human recombinant MMP-9; value outside parentheses): 5.75; pKi (Human recombinant MMP-2; value in parentheses): 6.14
O=C(NO)C1(S(=O)(=O)c2ccc(OCCCc3cncc(-c4ccc(F)cc4)c3)cc2)CCOCC1 [Example 523],–,–,pIC50 (Human recombinant MMP-9; value outside parentheses): 5.78; pKi (Human recombinant MMP-2; value in parentheses): 6.71
O=C(NO)C1(S(=O)(=O)c2ccc(OCCCc3cccc(-c4cccc(F)c4)c3)cc2)CCOCC1 [Example 161],5.58,5.75,–
O=C(CCCOc1ccc(S(=O)(=O)C2(C(=O)NO)CCOCC2)cc1)Nc1cccc(OC(F)(F)F)c1 [Example 181],7.58,7.80,–
O=C(Cc1csc2ccccc12)NCCOc1ccc(S(=O)(=O)C2(C(=O)NO)CCOCC2)cc1 [Example 596],–,–,pIC50 (Human recombinant MMP-9; value outside parentheses): 6.71; pKi (Human recombinant MMP-2; value in parentheses): 7.95
Cc1cc(NC(=O)CCCOc2ccc(S(=O)(=O)C3(C(=O)NO)CCOCC3)cc2)ccc1OC(C)C [Example 290],< 5.00,6.00,–
CC(C)c1cccc(NC(=O)CCCOc2ccc(S(=O)(=O)C3(C(=O)NO)CCOCC3)cc2)c1 [Example 182],7.21,7.46,–
CC(C)C(=O)c1cccc(CCCOc2ccc(S(=O)(=O)C3(C(=O)NO)CCOCC3)cc2)c1 [Example 95],5.92,6.83,–
CN(C(=O)CCCOc1ccc(S(=O)(=O)C2(C(=O)NO)CCOCC2)cc1)c1ccc(OC(F)(F)F)cc1 [Example 249],5.44,6.48,–
"O=C(NO)C1(S(=O)(=O)c2ccc(OCCCc3nc(-c4ccc(OC(F)(F)F)cc4)no3)cc2)CCN(C2CC2)CC1 [Example 51, 1-cyclopropyl-N-hydroxy-4-{[4-(3-{3-[4-(trifluoromethoxy)phenyl]-1,2,4-oxadiazol-5-yl}propoxy)phenyl]sulfonyl}piperidine-4-carboxamide Hydrochloride]",–,–,pIC50 (Human recombinant MMP-9; [1]): 5.10; pKi (Human recombinant MMP-2; [2]): 7.03
O=C(NO)C1(S(=O)(=O)c2ccc(OCCc3cccc(-c4ccncc4)c3)cc2)CCOCC1 [Example 113],5.70,7.37,–
O=C(CCCOc1ccc(S(=O)(=O)C2(C(=O)NO)CCOCC2)cc1)Nc1ccc(OC(F)(F)F)cc1 [Example 250],7.65,8.51,–
O=C(NO)C1(S(=O)(=O)c2ccc(OCCCc3cccc(-c4cccs4)c3)cc2)CCOCC1 [Example 595],–,–,pIC50 (Human recombinant MMP-9; value outside parentheses): 5.76; pKi (Human recombinant MMP-2; value in parentheses): 6.23
COCCN1CCC(C(=O)NO)(S(=O)(=O)c2ccc(OCCCc3nc(-c4ccccc4OC(F)(F)F)no3)cc2)CC1 [Example 152],7.14,6.83,–
CCc1ccccc1-c1noc(CCCOc2ccc(S(=O)(=O)C3(C(=O)NO)CCN(CCOC)CC3)cc2)n1 [Example 155],5.93,7.42,–
